Assay results taken from patent US20120184542A1, “PYRIDO PYRIMIDINES” (priority 2011, published 2012).
Where a name gives a salt, the structure may show the parent alone. Read-outs that look alike come from different tables or passages of the source.

Columns and labels:
[1] = system: SW620 human colon cancer cells; test: SW620 Cell Viability Assay; format: cell-based; details: CellTiter-Glo, 4 days incubation, read-out: Cellular EC50 (μM) SW620
Outline: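 SW620 human colon cancer cells, some attached 24 h then serum-starved 48 h before dosing; compounds prepared in serum-supplemented medium. Cells incubated with compound 4 days at 37 °C, 5% CO2, and viability measured by CellTiter-Glo luminescence.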

[2] = target: T1, Human DYRK1B (Homo sapiens, UniProt Q9Y463); test: DYRK1B Kinase TR-FRET (IMAP-Tb) Assay; format: biochemical; details: TR-FRET (IMAP-Tb); ATP 70 μM; 37° C. 60 minutes; read-out: Enzyme IC50 (μM) DYRK1B
T1 construct: purchased Invitrogen PR8350B (former PV4649)

[3] = target: T2, Human DYRK1A (Homo sapiens, UniProt Q13627); test: DYRK1A Kinase TR-FRET (IMAP-Tb) Assay; format: biochemical; details: TR-FRET (IMAP-Tb); ATP 70 μM; 37° C. 60 minutes; read-out: Enzyme IC50 (μM) DYRK1A
T2 construct: purchased Invitrogen PV3997
Outline: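 Recombinant human DYRK1A phosphorylated fluorescent substrate peptide (1.0 μM) with ATP in 10 mM HEPES pH 7.0, 50 mM NaCl, 5 mM MgCl2, 1 mM DTT, 1 mM NaVO4, 0.02% BSA for 60 min at 37 °C. Phosphopeptide detected by IMAP terbium TR-FRET; IC50 reported.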

T1 sequence (Q9Y463 whole entry): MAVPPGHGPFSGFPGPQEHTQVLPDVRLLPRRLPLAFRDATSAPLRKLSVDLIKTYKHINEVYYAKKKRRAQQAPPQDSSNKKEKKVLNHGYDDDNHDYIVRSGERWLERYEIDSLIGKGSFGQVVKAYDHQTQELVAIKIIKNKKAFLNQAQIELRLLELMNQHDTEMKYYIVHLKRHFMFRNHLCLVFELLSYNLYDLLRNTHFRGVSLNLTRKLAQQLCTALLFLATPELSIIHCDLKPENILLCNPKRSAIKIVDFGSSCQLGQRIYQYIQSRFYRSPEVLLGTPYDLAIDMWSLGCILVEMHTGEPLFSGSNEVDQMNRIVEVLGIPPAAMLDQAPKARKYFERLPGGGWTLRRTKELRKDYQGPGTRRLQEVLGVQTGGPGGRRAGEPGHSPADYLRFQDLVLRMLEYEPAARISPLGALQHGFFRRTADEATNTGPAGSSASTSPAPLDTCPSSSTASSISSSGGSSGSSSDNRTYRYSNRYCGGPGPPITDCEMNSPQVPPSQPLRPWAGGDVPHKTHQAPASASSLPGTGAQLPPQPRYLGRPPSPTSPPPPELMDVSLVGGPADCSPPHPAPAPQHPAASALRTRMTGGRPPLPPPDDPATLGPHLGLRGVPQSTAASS

CN1CCN(CCCNc2ncc3cc(C(=O)Nc4cc(C(=O)NC(CN)c5ccccc5)ccc4Cl)c(=O)[nH]c3n2)CC1 (stereo not drawn) [Example 122, N-(5-(2-Amino-1-phenylethylcarbamoyl)-2-chlorophenyl)-2-(3-(4-methylpiperazin-1-yl)propylamino)-7-oxo-7,8-dihydropyrido[2,3-d]pyrimidine-6-carboxamide]
EC50 ([1]; Homo sapiens, SW-620, 96 h): 0.359 µM
IC50 [2]: 0.009 µM
IC50 [3]: 0.012 µM

CN1CCN(CCCNc2ncc3cc(C(=O)Nc4cc(C(=O)NC(CN)c5ccccc5)ccc4Cl)c(=O)[nH]c3n2)CC1 (stereo not drawn) [Example 123, N-(5-(2-Amino-1-phenylethylcarbamoyl)-2-chlorophenyl)-2-(3-(4-methylpiperazin-1-yl)propylamino)-7-oxo-7,8-dihydropyrido[2,3-d]pyrimidine-6-carboxamide hydrochloride]
EC50 ([1]; hydrochloride): 0.319 µM
IC50 [2]: 0.0082 µM
IC50 [3]: 0.0067 µM

CC1(C)OCC(CNc2ncc3cc(C(=O)Nc4cc(C(=O)NCc5cccc(Cl)c5)ccc4Cl)c(=O)[nH]c3n2)O1 (stereo not drawn) [Example 124, N-(2-Chloro-5-(3-chlorobenzylcarbamoyl)phenyl)-2-((2,2-dimethyl-1,3-dioxolan-4-yl)methylamino)-7-oxo-7,8-dihydropyrido[2,3-d]pyrimidine-6-carboxamide]
EC50 ([1]; Homo sapiens, SW-620, 96 h): > 10 µM
IC50 [2]: 0.107 µM
IC50 [3]: 0.113 µM

O=C(NCc1cccc(Cl)c1)c1ccc(Cl)c(NC(=O)c2cc3cnc(NC4CCNCC4)nc3[nH]c2=O)c1 [Example 125, N-(2-Chloro-5-(3-chlorobenzylcarbamoyl)phenyl)-7-oxo-2-(piperidin-4-ylamino)-7,8-dihydropyrido[2,3-d]pyrimidine-6-carboxamide hydrochloride]
EC50 ([1]; Homo sapiens, SW-620, 96 h): 1.5 µM
IC50 [2]: 0.206 µM
IC50 [3]: 0.0303 µM

O=C(NCc1cccc(Cl)c1)c1ccc(Cl)c(NC(=O)c2cc3cnc(NCC(O)CO)nc3[nH]c2=O)c1 (stereo not drawn) [Example 126, N-(2-Chloro-5-(3-chlorobenzylcarbamoyl)phenyl)-2-(2,3-dihydroxypropylamino)-7-oxo-7,8-dihydropyrido[2,3-d]pyrimidine-6-carboxamide]
EC50 ([1]; Homo sapiens, SW-620, 96 h): > 10 µM
IC50 [2]: 0.059 µM
IC50 [3]: 0.0197 µM

CC(C)(O)CNc1ncc2cc(C(=O)Nc3cc(C(=O)NCc4cccc(Cl)c4)ccc3Cl)c(=O)[nH]c2n1 [Example 127, N-(2-Chloro-5-(3-chlorobenzylcarbamoyl)phenyl)-2-(2-hydroxy-2-methylpropylamino)-7-oxo-7,8-dihydropyrido[2,3-d]pyrimidine-6-carboxamide]
EC50 ([1]; Homo sapiens, SW-620, 96 h): 0.165 µM
IC50 [2]: 0.086 µM
IC50 [3]: 0.0223 µM

COc1ncc2cc(C(=O)Nc3cc(C(=O)N[C@@H](CN)c4cccc(Cl)c4)ccc3Cl)c(=O)[nH]c2n1 [Example 134, 2-Methoxy-7-oxo-7,8-dihydro-pyrido[2,3-d]pyrimidine-6-carboxylic acid {5-[(R)-2-amino-1-(3-chloro-phenyl)-ethylcarbamoyl]-2-chloro-phenyl}-amide]
EC50 ([1]; Homo sapiens, SW-620, 96 h): 7.57 µM
IC50 [2]: 1.98 µM
IC50 [3]: 0.481 µM

COc1ncc2cc(C(=O)Nc3cc(C(=O)N[C@H](CN)c4cccc(Cl)c4)ccc3Cl)c(=O)[nH]c2n1 [Example 135, 2-Methoxy-7-oxo-7,8-dihydro-pyrido[2,3-d]pyrimidine-6-carboxylic acid {5-[(S)-2-amino-1-(3-chloro-phenyl)-ethylcarbamoyl]-2-chloro-phenyl}-amide]
EC50 ([1]; Homo sapiens, SW-620, 96 h): 0.523 µM
IC50 [2]: 0.0457 µM
IC50 [3]: 0.0109 µM

NCC(NC(=O)c1ccc(Cl)c(NC(=O)c2cc3cnc(N4CCC(N)CC4)nc3[nH]c2=O)c1)c1ccccc1 (stereo not drawn) [Example 138, N-(5-(2-Amino-1-phenylethylcarbamoyl)-2-chlorophenyl)-2-(4-aminopiperidin-1-yl)-7-oxo-7,8-dihydropyrido[2,3-d]pyrimidine-6-carboxamide hydrochloride]
EC50 ([1]; Homo sapiens, SW-620, 96 h): 2.9 µM
IC50 [2]: 0.0319 µM
IC50 [3]: 0.0184 µM

CN1CCN(CCNc2ncc3cc(C(=O)Nc4cc(C(=O)NC(CN)c5ccccc5)ccc4Cl)c(=O)[nH]c3n2)CC1 (stereo not drawn) [Example 139, N-(5-(2-Amino-1-phenylethylcarbamoyl)-2-chlorophenyl)-2-(2-(4-methylpiperazin-1-yl)ethylamino)-7-oxo-7,8-dihydropyrido[2,3-d]pyrimidine-6-carboxamide hydrochloride]
EC50 ([1]; Homo sapiens, SW-620, 96 h): 0.396 µM
IC50 [2]: 0.019 µM
IC50 [3]: 0.006 µM

CSc1ncc2cc(C(=O)Nc3cc(C(=O)NC(CO)c4ccccc4)ccc3Cl)c(=O)[nH]c2n1 (stereo not drawn) [Example 140, N-(2-Chloro-5-(2-hydroxy-1-phenylethylcarbamoyl)phenyl)-2-(methylthio)-7-oxo-7,8-dihydropyrido[2,3-d]pyrimidine-6-carboxamide]
EC50 ([1]; Homo sapiens, SW-620, 96 h): 3.07 µM
IC50 [2]: 0.17 µM
IC50 [3]: 0.073 µM

CSc1ncc2cc(C(=O)Nc3cc(C(=O)NC(CCO)c4ccccc4)ccc3Cl)c(=O)[nH]c2n1 (stereo not drawn) [Example 141, N-(2-Chloro-5-(3-hydroxy-1-phenylpropylcarbamoyl)phenyl)-2-(methylthio)-7-oxo-7,8-dihydropyrido[2,3-d]pyrimidine-6-carboxamide]
EC50 ([1]; Homo sapiens, SW-620, 96 h): 2.39 µM
IC50 [2]: 0.12 µM
IC50 [3]: 0.101 µM

NC1CCN(c2ncc3cc(C(=O)Nc4cc(C(=O)NC(CO)c5ccccc5)ccc4Cl)c(=O)[nH]c3n2)CC1 (stereo not drawn) [Example 147, 2-(4-Aminopiperidin-1-yl)-N-(2-chloro-5-(2-hydroxy-1-phenylethylcarbamoyl)phenyl)-7-oxo-7,8-dihydropyrido[2,3-d]pyrimidine-6-carboxamide hydrochloride]
EC50 ([1]; Homo sapiens, SW-620, 96 h): 1.44 µM
IC50 [2]: 0.483 µM
IC50 [3]: 0.194 µM

NC1CCN(c2ncc3cc(C(=O)Nc4cc(C(=O)NC(CCO)c5ccccc5)ccc4Cl)c(=O)[nH]c3n2)CC1 (stereo not drawn) [Example 148, 2-(4-Aminopiperidin-1-yl)-N-(2-chloro-5-(3-hydroxy-1-phenylpropylcarbamoyl)phenyl)-7-oxo-7,8-dihydropyrido[2,3-d]pyrimidine-6-carboxamide hydrochloride]
EC50 ([1]; Homo sapiens, SW-620, 96 h): 0.069 µM
IC50 [2]: 0.321 µM
IC50 [3]: 0.15 µM

NCC(NC(=O)c1ccc(Cl)c(NC(=O)c2cc3cncnc3[nH]c2=O)c1)c1ccccc1 (stereo not drawn) [Example 151, N-(5-(2-Amino-1-phenylethylcarbamoyl)-2-chlorophenyl)-7-oxo-7,8-dihydropyrido[2,3-d]pyrimidine-6-carboxamide hydrochloride]
EC50 ([1]; Homo sapiens, SW-620, 96 h): 4.26 µM
IC50 [2]: 0.096 µM
IC50 [3]: 0.061 µM

NCCC(NC(=O)c1ccc(Cl)c(NC(=O)c2cc3cncnc3[nH]c2=O)c1)c1ccccc1 (stereo not drawn) [Example 152, N-(5-(3-Amino-1-phenylpropylcarbamoyl)-2-chlorophenyl)-7-oxo-7,8-dihydropyrido[2,3-d]pyrimidine-6-carboxamide hydrochloride]
EC50 ([1]; Homo sapiens, SW-620, 96 h): 2.68 µM
IC50 [2]: 0.033 µM
IC50 [3]: 0.066 µM

COc1ncc2cc(C(=O)Nc3cc(C(=O)N[C@H](CCO)c4ccccc4)ccc3Cl)c(=O)[nH]c2n1 [Example 158, (R)—N-(2-Chloro-5-(3-hydroxy-1-phenylpropylcarbamoyl)phenyl)-2-methoxy-7-oxo-7,8-dihydropyrido[2,3-d]pyrimidine-6-carboxamide]
EC50 ([1]; Homo sapiens, SW-620, 96 h): 1.71 µM
IC50 [2]: 0.082 µM
IC50 [3]: 0.037 µM

NCCC(NC(=O)c1cc(NC(=O)c2cc3cnc(N4CCOCC4)nc3[nH]c2=O)c(Cl)cc1F)c1cccc(Cl)c1 (stereo not drawn) [Example 160, 2-Morpholin-4-yl-7-oxo-7,8-dihydro-pyrido[2,3-d]pyrimidine-6-carboxylic acid {5-[3-amino-1-(3-chloro-phenyl)-propylcarbamoyl]-2-chloro-4-fluoro-phenyl}-amide]
EC50 ([1]; Homo sapiens, SW-620, 96 h): 0.219 µM
IC50 [2]: 0.0932 µM
IC50 [3]: 0.0532 µM

O=C(NCc1cccc(F)c1)c1ccc(Cl)c(NC(=O)c2cc3cnc(N4CCOCC4)nc3[nH]c2=O)c1 [Example 161, 2-Morpholin-4-yl-7-oxo-7,8-dihydro-pyrido[2,3-d]pyrimidine-6-carboxylic acid [2-chloro-5-(3-fluoro-benzylcarbamoyl)-phenyl]-amide]
EC50 ([1]; Homo sapiens, SW-620, 96 h): > 10 µM
IC50 [2]: 0.0472 µM
IC50 [3]: 0.0462 µM

O=C(NCc1cccc(F)c1)c1cc(NC(=O)c2cc3cnc(N4CCOCC4)nc3[nH]c2=O)c(Cl)cc1F [Example 162, 2-Morpholin-4-yl-7-oxo-7,8-dihydro-pyrido[2,3-d]pyrimidine-6-carboxylic acid [2-chloro-4-fluoro-5-(3-fluoro-benzylcarbamoyl)-phenyl]-amide]
EC50 ([1]; Homo sapiens, SW-620, 96 h): > 10 µM
IC50 [2]: 0.135 µM
IC50 [3]: 0.0432 µM

COc1ncc2cc(C(=O)Nc3cc(C(=O)NCCC(N)=O)ccc3Cl)c(=O)[nH]c2n1 [Example 167, N-(5-(3-Amino-3-oxopropylcarbamoyl)-2-chlorophenyl)-2-methoxy-7-oxo-7,8-dihydropyrido[2,3-d]pyrimidine-6-carboxamide]
EC50 ([1]; Homo sapiens, SW-620, 96 h): > 10 µM
IC50 [2]: 0.769 µM
IC50 [3]: 0.338 µM

COc1nc(C)c2cc(C(=O)Nc3cc(C(=O)NC(CN)c4ccccc4)ccc3Cl)c(=O)[nH]c2n1 (stereo not drawn) [Example 170, N-(5-(2-Amino-1-phenylethylcarbamoyl)-2-chlorophenyl)-2-methoxy-4-methyl-7-oxo-7,8-dihydropyrido[2,3-d]pyrimidine-6-carboxamide 2,2,2-trifluoroacetate]
EC50 ([1]; Homo sapiens, SW-620, 96 h): 3.21 µM
IC50 [2]: 0.117 µM
IC50 [3]: 0.0164 µM
